Values quoted from earlier work in patent US20050038473A1, “Device and method for the treatment of pilosebaceous disorders” (priority 2003, published 2005).
Where two headings read alike, the source gives them in different places.

Legend:
[1] = tested on: hair follicles
[2] = tested on: in-vitro hair follicle cultures; conditions: 5-alpha-reductase blocker, versus finasteride
[3] = target: T1, androgen receptors (Homo sapiens, UniProt P10275); conditions: compared with testosterone
T1 sequence (P10275 1-920): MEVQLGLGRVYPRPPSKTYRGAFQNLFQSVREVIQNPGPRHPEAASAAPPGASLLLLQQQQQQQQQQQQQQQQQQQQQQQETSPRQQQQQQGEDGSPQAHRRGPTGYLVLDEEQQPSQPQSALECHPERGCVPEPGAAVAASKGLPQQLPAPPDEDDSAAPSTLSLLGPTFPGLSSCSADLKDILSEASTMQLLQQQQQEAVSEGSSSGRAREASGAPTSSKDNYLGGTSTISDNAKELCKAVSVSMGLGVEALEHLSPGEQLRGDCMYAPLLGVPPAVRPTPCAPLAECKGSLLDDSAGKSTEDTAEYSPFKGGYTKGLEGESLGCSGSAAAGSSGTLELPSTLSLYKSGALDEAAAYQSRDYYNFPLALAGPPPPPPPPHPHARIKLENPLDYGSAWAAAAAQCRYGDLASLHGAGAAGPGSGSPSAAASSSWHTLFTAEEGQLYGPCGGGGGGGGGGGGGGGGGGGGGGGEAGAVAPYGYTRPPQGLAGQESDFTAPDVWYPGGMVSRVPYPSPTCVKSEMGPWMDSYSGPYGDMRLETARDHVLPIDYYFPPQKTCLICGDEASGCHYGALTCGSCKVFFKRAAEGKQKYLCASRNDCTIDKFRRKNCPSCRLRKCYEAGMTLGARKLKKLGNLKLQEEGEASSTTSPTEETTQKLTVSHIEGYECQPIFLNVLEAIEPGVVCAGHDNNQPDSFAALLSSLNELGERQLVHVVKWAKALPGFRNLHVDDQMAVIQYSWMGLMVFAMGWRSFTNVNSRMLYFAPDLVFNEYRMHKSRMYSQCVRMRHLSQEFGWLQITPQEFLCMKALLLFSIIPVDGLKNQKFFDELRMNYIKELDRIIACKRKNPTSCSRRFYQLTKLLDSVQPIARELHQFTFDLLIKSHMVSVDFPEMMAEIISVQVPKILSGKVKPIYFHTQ

[4] = tested on: idiopathic hirsutism; conditions: women with idiopathic hirsutism taking flutamide

## C=C1/C(=C\C=C2/CCC[C@]3(C)[C@@H]([C@H](C)CCCC(C)(C)O)CC[C@@H]23)C[C@@H](O)C[C@@H]1O [1,25-dihydroxyvitamin D3]
[1]; high concentration (100 nM) and after longer contact
  effect on hair and hair follicle growth: inhibits
[1]; low concentration (1-10 nM), direct contact with hair follicles
  effect on hair and hair follicle growth: stimulates

## CCN(CC)C(=O)[C@H]1CC[C@H]2[C@@H]3CC[C@H]4N(C)C(=O)CC[C@]4(C)[C@H]3CC[C@]12C [17-beta-N,N-diethylcarbamyl-4-methyl-4-aza-5-androstan-3-one]
[2]
  effect on in-vitro hair follicle cultures compared with finasteride: greater effect

## CN1C(=S)N(c2ccc(C#N)c(C(F)(F)F)c2)C(=O)C1(C)C [RU 56187]
[3]
  affinity for androgen receptors relative to the affinity of testosterone: three times higher

## CC1(C)C(=O)N(c2ccc(C#N)c(C(F)(F)F)c2)C(=S)N1CCCCO [RU 59063]
[3]
  affinity for androgen receptors relative to the affinity of testosterone: three times higher

## CC(C)C(=O)Nc1ccc([N+](=O)[O-])c(C(F)(F)F)c1 [flutamide]
[4]
  disturbance of plasma levels of gonadotropins, testosterone, androstenedione or dehydroepiandrostenedione: without disturbance
